Test results published in PubChem BioAssay (NCI).
Where “and” joins values, the source holds several entries; their conditions need not be identical. Equal values may be shown once.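 Step 1: Grow cells in 96-well plates. Step 2: Expose to compound for 48 hours at 5 concentrations. Step 3: Interpolate endpoints linearly; if unreached, use highest concentration. GI50: concentration for 50% inhibition of growth. The concentration for full growth arrest is given as TGI.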

What was measured:
Experiment in all cases: DTP human tumour cell line panel, 48 h
CAKI-1 renal = tested on: CAKI-1 renal
COLO 205 colon = tested on: COLO 205 colon
SK-MEL-5 melanoma = tested on: SK-MEL-5 melanoma
PC-3 prostate = tested on: PC-3 prostate
UO-31 renal = tested on: UO-31 renal
SNB-19 CNS = tested on: SNB-19 CNS
NCI-H522 lung = tested on: NCI-H522 lung
SF-539 CNS = tested on: SF-539 CNS
T-47D breast = tested on: T-47D breast
MOLT-4 leukemia = tested on: MOLT-4 leukemia

Compound | GI50 (CAKI-1 renal) | TGI (CAKI-1 renal) | GI50 (COLO 205 colon) | TGI (COLO 205 colon) | GI50 (SK-MEL-5 melanoma) | TGI (SK-MEL-5 melanoma) | GI50 (PC-3 prostate) | TGI (PC-3 prostate) | GI50 (UO-31 renal) | TGI (UO-31 renal) | GI50 (SNB-19 CNS) | TGI (SNB-19 CNS) | GI50 (NCI-H522 lung) | TGI (NCI-H522 lung) | GI50 (SF-539 CNS) | TGI (SF-539 CNS) | GI50 (T-47D breast) | TGI (T-47D breast) | GI50 (MOLT-4 leukemia) | TGI (MOLT-4 leukemia)
CC(C)(C)NC(=O)[C@H]1CC[C@H]2[C@@H]3CC[C@H]4NC(=O)C=C[C@]4(C)[C@H]3CC[C@]12C | 77.9 µM and > 100 µM | > 100 µM | > 100 µM | > 100 µM | 43.1 µM and > 100 µM | > 100 µM | 61 µM and > 100 µM | > 100 µM | 71.1 µM and > 100 µM | > 100 µM | > 100 µM | > 100 µM | 23.2 µM and > 100 µM | > 100 µM | > 100 µM | > 100 µM | > 100 µM and 67.2 µM | > 100 µM | 66 µM and > 100 µM | > 100 µM
NC(=O)CC1(O)C=C(Br)C(=O)C(Br)=C1 | 0.94 µM | 2.96 µM | 1.25 µM | 2.63 µM | 12.5 µM | 25.6 µM | 7.65 µM | 24.9 µM | 2.17 µM | 11.2 µM | 18.1 µM | 32.6 µM | 0.326 µM | 1.44 µM | 2.95 µM | 9.15 µM | 2.57 µM | 7.87 µM | 2.29 µM | 5.35 µM
O=C(COc1ccc(OCC(=O)N2C(=O)CN(c3ccccc3)C2=S)cc1)N1C(=O)CN(c2ccccc2)C1=S | > 25 µM | > 100 µM | > 25 µM | > 100 µM | > 100 µM | > 100 µM |  | > 100 µM | > 25 µM | > 100 µM | > 25 µM | > 100 µM | > 25 µM | > 100 µM |  | > 100 µM | > 25 µM | > 100 µM | > 100 µM | > 100 µM
N#Cc1ccccc1C#C/C=C\C#CC#C/C=C\C#Cc1ccccc1C#N | 20.1 µM | 73.4 µM | 7.33 µM | 21.1 µM | 10.4 µM | 27.9 µM | 19.6 µM | > 100 µM | 21.8 µM | > 100 µM | 7.27 µM | > 100 µM | 3.15 µM | 14.9 µM | 22.6 µM | > 100 µM | 10.3 µM | 46.5 µM | 15.6 µM | 89.3 µM
COc1c(O)cc2c(c1O)C(=O)C1=C(CCCC1)C2=O |  | 71 µM |  | 40.1 µM |  | 66 µM |  | 84.5 µM |  | 43.8 µM |  | 96.9 µM |  | 31.8 µM |  | 44 µM |  | 50.2 µM |  | 23 µM
NC(Cc1c[nH]c2ccc(F)cc12)C(=O)O (configuration not stated) | 1270 µM | > 2500 µM | 340 µM | 1010 µM | 375 µM | 711 µM | 780 µM | > 2500 µM | 444 µM | 1950 µM | 1680 µM | > 2500 µM | 1460 µM | > 2500 µM | 506 µM | 1590 µM | 1730 µM | > 2500 µM | 1030 µM | > 2500 µM
Clc1ccc2ncc(-c3cccc(NC4CNC4)n3)n2c1 | 4.51 µM | 84.1 µM | 2.11 µM | 7.31 µM | 16.1 µM | 76.1 µM | 4.55 µM | 80.9 µM | 5.12 µM | 88.5 µM | 24.1 µM | > 100 µM | 6.13 µM | 27.9 µM | 2.92 µM | 17.3 µM | 20.2 µM | 73.8 µM | 5.03 µM | > 100 µM
COc1ccc2nc(-c3ccccc3)cc(Nc3cccc(C(C)=O)c3)c2c1 | 12.6 µM | 28.2 µM | 6.58 µM | 41.1 µM | 8.89 µM | 24.3 µM | 21.5 µM | 50.6 µM | 22.8 µM | > 100 µM | 17.2 µM | > 100 µM | 31.6 µM | > 100 µM | 1.67 µM | 3.66 µM | 13.4 µM | > 100 µM | 7.57 µM | > 100 µM
COc1ccc(Cl)cc1Nc1nc(C(F)(F)F)ccc1C(=O)N/N=C/c1cccnc1 | 3.84 µM | > 100 µM | 2.58 µM | > 100 µM | 2.64 µM | 65.3 µM | 3.8 µM | > 100 µM | 4.1 µM | > 100 µM | 3.78 µM | > 100 µM | 2.47 µM | 74.7 µM | 5.12 µM | > 100 µM | 2.12 µM | > 100 µM | 1.66 µM | > 100 µM
Cc1ccc(-c2nc3cc(Cl)c(Cl)cc3nc2C#N)cc1 | > 100 µM | > 100 µM | > 100 µM | > 100 µM | > 100 µM | > 100 µM | > 100 µM | > 100 µM | > 100 µM | > 100 µM | > 100 µM | > 100 µM | > 100 µM | > 100 µM | > 100 µM | > 100 µM | > 100 µM | > 100 µM | > 100 µM | > 100 µM
O=C1C=CC(=Nc2cccc3c(N=C4C=CC(=O)O4)cccc23)O1 |  | 35.5 µM |  | 40.4 µM |  | > 100 µM |  | > 100 µM |  | > 100 µM |  | > 100 µM |  | 34.3 µM |  | 36.1 µM |  | > 100 µM |  | 19.8 µM
Nc1nnnc2nc[nH]c12 | 0.221 µM |  | 1.85 µM | 7.47 µM | 2.02 µM | 8.22 µM | 2.42 µM | > 100 µM | 0.523 µM | > 100 µM | 6.17 µM | > 100 µM | 2.02 µM | 17 µM | 1.63 µM | 13.5 µM | 0.297 µM | 2.55 µM | 2.62 µM | > 100 µM
C/C(=N/O)c1ccc2c(c1)/C(=N/O)c1ccccc1-2 | 20.3 µM | 44.8 µM | 18.1 µM | 35.6 µM | 17 µM | 31.2 µM | 24.2 µM | 57.4 µM | 18.7 µM | 38.2 µM | 33.8 µM | > 100 µM | 17.9 µM | 35.2 µM | 21.6 µM | 50 µM | 24 µM | 52.7 µM | 20.2 µM | 49.4 µM
